Laboratory results published in ChEMBL document CHEMBL1128617, “4-Deoxy-4-aminoavermectins with potent broad spectrum antiparasitic activities” (1995).

How the values were obtained:
Type in all cases: functional
[1] = system: Ovis aries; experiment: (§1) Antiparasitic activity against Cooperia oncophora at dose of 0.05 mg/kg in sheep anthelmintic test
[2] = system: Ovis aries; experiment: (§2) Antiparasitic activity against Cooperia […] at dose of 0.05 mg/kg in sheep anthelmintic test
[3] = system: Artemia; experiment: In vitro antiparasitic activity in brine shrimp assay
[4] = system: Ovis aries; experiment: (§3) Antiparasitic activity against Trichostrongylus colubriformis at dose of 0.05 mg/kg in sheep anthelmintic test
[5] = system: Ovis aries; experiment: (§4) Antiparasitic activity against Oesophagostomum columbianum at dose of 0.05 mg/kg in sheep anthelmintic test
[6] = system: Ovis aries; experiment: (§5) Antiparasitic activity against Haemonchus contortus at dose of 0.05 mg/kg in sheep anthelmintic test
[7] = system: Ovis aries; experiment: (§6) Antiparasitic activity against Ostertagia circumcincta at dose of 0.05 mg/kg in sheep anthelmintic test
[8] = system: Ovis aries; experiment: (§7) Antiparasitic activity against Trichostrongylus axei at dose of 0.05 mg/kg in sheep anthelmintic test
[9] = system: Cooperia oncophora; experiment: Antiparasitic activity against Cooperia oncophora at dose of 0.10 mg/kg in sheep anthelmintic test
[10] = system: Haemonchus contortus; experiment: Antiparasitic activity against Haemonchus contortus at dose of 0.10 mg/kg in sheep anthelmintic test
[11] = system: Trichostrongylus axei; experiment: Antiparasitic activity against Trichostrongylus axei at dose of 0.10 mg/kg in sheep anthelmintic test
[12] = system: Oesophagostomum columbianum; experiment: Antiparasitic activity against Oesophagostomum columbianum at dose of 0.10 mg/kg in sheep anthelmintic test
[13] = system: Teladorsagia circumcincta; experiment: Antiparasitic activity against Ostertagia circumcincta at dose of 0.10 mg/kg in sheep anthelmintic test
[14] = system: Trichostrongylus colubriformis; experiment: Antiparasitic activity against Trichostrongylus colubriformis at dose of 0.10 mg/kg in sheep anthelmintic test
[15] = system: Cooperia; experiment: Antiparasitic activity against Cooperia […] at dose of 0.10 mg/kg in sheep anthelmintic test; conditions: dose 0.1 mg/kg
[16] = system: Cooperia oncophora; experiment: as §1
[17] = system: Cooperia; experiment: as §2
[18] = system: Trichostrongylus colubriformis; experiment: as §3
[19] = system: Oesophagostomum columbianum; experiment: as §4
[20] = system: Haemonchus contortus; experiment: as §5
[21] = system: Teladorsagia circumcincta; experiment: as §6
[22] = system: Trichostrongylus axei; experiment: as §7
[23] = system: Ovis aries; experiment: Antiparasitic activity against Haemonchus contortus at dose of 0.08 mg/kg in sheep anthelmintic test
[24] = system: Ovis aries; experiment: Antiparasitic activity against Trichostrongylus axei at dose of 0.08 mg/kg in sheep anthelmintic test
[25] = system: Ovis aries; experiment: Antiparasitic activity against Ostertagia circumcincta at dose of 0.08 mg/kg in sheep anthelmintic test
[26] = system: Ovis aries; experiment: Antiparasitic activity against Cooperia […] at dose of 0.08 mg/kg in sheep anthelmintic test
[27] = system: Ovis aries; experiment: Antiparasitic activity against Oesophagostomum columbianum at dose of 0.08 mg/kg in sheep anthelmintic test
[28] = system: Ovis aries; experiment: Antiparasitic activity against Trichostrongylus colubriformis at dose of 0.08 mg/kg in sheep anthelmintic test

Molecule	IC100 [3]	Reduction [16]	Reduction [17]	Reduction [18]	Reduction [19]	Reduction [20]	Reduction [21]	Reduction [22]	further results
CCC(C)[C@H]1O[C@]2(C=C[C@@H]1C)C[C@@H]1C[C@@H](C/C=C(\C)[C@@H](O[C@H]3C[C@H](OC)[C@@H](O[C@H]4C[C@H](OC)[C@H](NC(C)C)[C@H](C)O4)[C@H](C)O3)[C@@H](C)/C=C/C=C3\CO[C@@H]4[C@H](O)C(C)=C[C@@H](C(=O)O1)[C@]34O)O2 (some centres undefined)	1730 ng/mL	–	–	–	–	–	–	–	Reduction [1]: 51%; Reduction [2]: 51%; Reduction [4]: 51%; Reduction [5]: >95%; Reduction [6]: 76%; Reduction [7]: <50%; Reduction [8]: <50%
CCC(C)[C@H]1O[C@]2(CC[C@@H]1C)C[C@@H]1C[C@@H](C/C=C(\C)[C@@H](O[C@H]3C[C@H](OC)[C@@H](O[C@H]4C[C@H](OC)[C@H](NC(C)=O)[C@H](C)O4)[C@H](C)O3)[C@@H](C)/C=C/C=C3\CO[C@@H]4[C@H](O)C(C)=C[C@@H](C(=O)O1)[C@]34O)O2 (some centres undefined)	650 ng/mL	–	–	–	–	–	–	–	Reduction ([9]; dose 0.1 mg/kg): >95%; Reduction ([10]; dose 0.1 mg/kg): >95%; Reduction ([11]; dose 0.1 mg/kg): >95%; Reduction ([12]; dose 0.1 mg/kg): >95%; Reduction ([13]; dose 0.1 mg/kg): >95%; Reduction ([14]; dose 0.1 mg/kg): >95%; Reduction [15]: >95%
CCC(C)[C@H]1O[C@]2(C=C[C@@H]1C)C[C@@H]1C[C@@H](C/C=C(\C)[C@@H](O[C@H]3C[C@H](OC)[C@@H](O[C@H]4C[C@@H](OC)[C@@H](NC(C)=O)[C@H](C)O4)[C@H](C)O3)[C@@H](C)/C=C/C=C3\CO[C@@H]4[C@H](O)C(C)=C[C@@H](C(=O)O1)[C@]34O)O2 (some centres undefined)	430 ng/mL	76%	<50%	>95%	>95%	>95%	>95%	>95%	–
CCC(C)[C@H]1O[C@]2(C=C[C@@H]1C)C[C@@H]1C[C@@H](C/C=C(\C)[C@@H](O[C@H]3C[C@H](OC)[C@@H](O[C@H]4C[C@H](OC)/C(=N\NC(N)=O)[C@H](C)O4)[C@H](C)O3)[C@@H](C)/C=C/C=C3\CO[C@@H]4[C@H](O)C(C)=C[C@@H](C(=O)O1)[C@]34O)O2 (some centres undefined)	650 ng/mL	–	–	–	–	–	–	–	Reduction [23]: >95%; Reduction [24]: >95%; Reduction [25]: >95%; Reduction [26]: <50%; Reduction [27]: >95%; Reduction [28]: >95%
CCC(C)[C@H]1O[C@]2(C=C[C@@H]1C)C[C@@H]1C[C@@H](C/C=C(\C)[C@@H](O[C@H]3C[C@H](OC)[C@@H](O[C@H]4C[C@H](OC)[C@@H](NC(C)=O)[C@H](C)O4)[C@H](C)O3)[C@@H](C)/C=C/C=C3\CO[C@@H]4[C@H](O)C(C)=C[C@@H](C(=O)O1)[C@]34O)O2 (some centres undefined)	325 ng/mL	>95%	76%	<50%	>95%	>95%	<50%	>95%	–
CCC(C)[C@H]1O[C@]2(C=C[C@@H]1C)C[C@@H]1C[C@@H](C/C=C(\C)[C@@H](O[C@H]3C[C@H](OC)[C@@H](O[C@H]4C[C@H](OC)[C@H](NS(C)(=O)=O)[C@H](C)O4)[C@H](C)O3)[C@@H](C)/C=C/C=C3\CO[C@@H]4[C@H](O)C(C)=C[C@@H](C(=O)O1)[C@]34O)O2 (some centres undefined)	430 ng/mL	>95%	>95%	>95%	>95%	>95%	>95%	>95%	–
IVERMECTIN	430 ng/mL	–	–	–	–	–	–	–	Reduction [9]: > 95%; Reduction [10]: > 95%; Reduction [11]: > 95%; Reduction [12]: > 95%; Reduction [13]: > 95%; Reduction [14]: > 95%
